According to the kinase profiling compilation of Christmann-Franck et al. (2016):
“And” between values parts separate entries of the source, which are not always exact repeats. Equal values may be shown once.

Experiments:
Assay in all cases: Caliper, Mobility shift assay off-chip
[1] = target: PHKG1 (human) (UniProt Q16816)
[2] = target: NEK6 (human) (UniProt Q9HC98)
[3] = target: RPS6KA4 KD1 KD2 (human) (UniProt O75676)
[4] = target: RPS6KA6 KD1 KD2 (human) (UniProt Q9UK32)
[5] = target: EPHA2 (human) (UniProt P29317)
[6] = target: AKT2 (human) (UniProt P31751)
[7] = target: CSNK1G1 (human) (UniProt Q9HCP0)
[8] = target: MARK1 (human) (UniProt Q9P0L2)
[9] = target: CLK1 (human) (UniProt P49759)
[10] = target: MAPK10 (human) (UniProt P53779)
Sequence of MAPK10 (human) (P53779 whole entry, looked up): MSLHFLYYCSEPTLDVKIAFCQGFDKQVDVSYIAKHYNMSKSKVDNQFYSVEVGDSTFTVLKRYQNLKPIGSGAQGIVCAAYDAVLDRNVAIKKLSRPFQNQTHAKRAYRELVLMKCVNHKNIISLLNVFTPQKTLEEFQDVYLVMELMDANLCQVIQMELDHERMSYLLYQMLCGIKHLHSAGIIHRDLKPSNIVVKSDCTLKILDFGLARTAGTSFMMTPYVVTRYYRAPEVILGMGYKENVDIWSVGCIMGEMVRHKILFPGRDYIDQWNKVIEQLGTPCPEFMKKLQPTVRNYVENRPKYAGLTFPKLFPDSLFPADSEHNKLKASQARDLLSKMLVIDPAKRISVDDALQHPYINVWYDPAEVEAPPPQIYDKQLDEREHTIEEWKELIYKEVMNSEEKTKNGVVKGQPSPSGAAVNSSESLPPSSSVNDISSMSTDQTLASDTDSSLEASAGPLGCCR

[11] = target: TXK (human) (UniProt P42681)
[12] = target: LYN (human) (UniProt P07948)
Sequence of LYN (human) (P07948 whole entry, looked up): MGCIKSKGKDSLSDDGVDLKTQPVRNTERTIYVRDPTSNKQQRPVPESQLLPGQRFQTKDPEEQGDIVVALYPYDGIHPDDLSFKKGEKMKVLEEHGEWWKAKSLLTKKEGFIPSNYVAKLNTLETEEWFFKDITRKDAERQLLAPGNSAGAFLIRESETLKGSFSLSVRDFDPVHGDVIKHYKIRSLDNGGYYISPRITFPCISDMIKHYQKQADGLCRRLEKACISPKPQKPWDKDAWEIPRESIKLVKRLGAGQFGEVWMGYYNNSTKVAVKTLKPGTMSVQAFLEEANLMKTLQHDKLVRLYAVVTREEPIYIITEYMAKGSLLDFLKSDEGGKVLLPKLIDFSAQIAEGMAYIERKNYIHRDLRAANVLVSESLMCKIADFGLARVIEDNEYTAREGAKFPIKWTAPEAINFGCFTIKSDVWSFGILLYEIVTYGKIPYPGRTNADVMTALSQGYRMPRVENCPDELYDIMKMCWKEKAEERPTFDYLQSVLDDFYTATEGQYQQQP

[13] = target: ROS1 (human) (UniProt P08922)
[14] = target: MAPKAPK2 (human) (UniProt P49137)
[15] = target: YES1 (human) (UniProt P07947)
[16] = target: TSSK1B (human) (UniProt Q9BXA7)
[17] = target: PRKCH (human) (UniProt P24723)
[18] = target: TYRO3 (human) (UniProt Q06418)
Sequence of TYRO3 (human) (Q06418 whole entry, looked up): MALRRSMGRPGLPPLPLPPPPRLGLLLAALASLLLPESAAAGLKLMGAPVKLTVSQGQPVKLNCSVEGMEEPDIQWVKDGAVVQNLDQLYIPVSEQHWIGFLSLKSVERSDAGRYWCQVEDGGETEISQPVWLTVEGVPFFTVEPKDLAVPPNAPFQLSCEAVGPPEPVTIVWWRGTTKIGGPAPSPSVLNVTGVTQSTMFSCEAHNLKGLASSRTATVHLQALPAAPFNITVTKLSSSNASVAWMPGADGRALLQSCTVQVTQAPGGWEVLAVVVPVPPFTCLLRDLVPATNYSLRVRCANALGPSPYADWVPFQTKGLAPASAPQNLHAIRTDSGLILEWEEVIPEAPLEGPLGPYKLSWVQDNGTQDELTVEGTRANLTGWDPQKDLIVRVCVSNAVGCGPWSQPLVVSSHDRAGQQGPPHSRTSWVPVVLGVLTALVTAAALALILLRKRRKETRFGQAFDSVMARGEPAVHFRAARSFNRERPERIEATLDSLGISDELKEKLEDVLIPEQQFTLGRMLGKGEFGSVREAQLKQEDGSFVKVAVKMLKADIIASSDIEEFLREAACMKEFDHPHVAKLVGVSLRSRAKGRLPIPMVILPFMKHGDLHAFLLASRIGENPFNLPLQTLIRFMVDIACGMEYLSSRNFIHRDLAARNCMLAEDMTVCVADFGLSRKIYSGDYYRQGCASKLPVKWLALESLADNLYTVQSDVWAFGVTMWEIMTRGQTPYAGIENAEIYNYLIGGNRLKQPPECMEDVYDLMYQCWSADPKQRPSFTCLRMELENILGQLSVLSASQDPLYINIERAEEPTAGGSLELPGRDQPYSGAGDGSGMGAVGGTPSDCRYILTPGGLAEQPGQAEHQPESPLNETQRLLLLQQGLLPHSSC

[19] = target: SGK1 (human) (UniProt O00141)
Sequence of SGK1 (human) (O00141 whole entry, looked up): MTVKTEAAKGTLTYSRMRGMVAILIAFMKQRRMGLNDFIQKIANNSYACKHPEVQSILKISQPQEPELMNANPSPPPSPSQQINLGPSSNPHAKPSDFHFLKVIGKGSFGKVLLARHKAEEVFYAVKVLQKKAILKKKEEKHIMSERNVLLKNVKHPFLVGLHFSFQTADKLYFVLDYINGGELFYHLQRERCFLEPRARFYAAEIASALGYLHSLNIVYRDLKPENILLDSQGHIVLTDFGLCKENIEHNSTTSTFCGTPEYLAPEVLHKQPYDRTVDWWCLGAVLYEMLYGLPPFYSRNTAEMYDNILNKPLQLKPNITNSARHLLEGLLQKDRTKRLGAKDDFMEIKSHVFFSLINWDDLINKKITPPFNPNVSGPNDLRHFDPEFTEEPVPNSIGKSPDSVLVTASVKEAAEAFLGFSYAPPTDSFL

[20] = target: FRK (human) (UniProt P42685)
Sequence of FRK (human) (P42685 whole entry, looked up): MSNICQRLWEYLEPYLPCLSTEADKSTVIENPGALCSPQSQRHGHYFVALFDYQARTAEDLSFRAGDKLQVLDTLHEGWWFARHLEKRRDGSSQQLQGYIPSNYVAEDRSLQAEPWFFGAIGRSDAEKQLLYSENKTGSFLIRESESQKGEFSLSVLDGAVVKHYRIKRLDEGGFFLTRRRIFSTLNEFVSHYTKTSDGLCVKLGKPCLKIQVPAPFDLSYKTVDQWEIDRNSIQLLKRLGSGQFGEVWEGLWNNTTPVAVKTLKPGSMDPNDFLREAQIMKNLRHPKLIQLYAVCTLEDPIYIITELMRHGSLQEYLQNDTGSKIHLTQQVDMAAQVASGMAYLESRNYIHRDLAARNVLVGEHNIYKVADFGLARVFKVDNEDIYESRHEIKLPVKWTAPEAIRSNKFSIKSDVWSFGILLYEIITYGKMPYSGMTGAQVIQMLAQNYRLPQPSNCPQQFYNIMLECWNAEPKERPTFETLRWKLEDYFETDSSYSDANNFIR

[21] = target: CAMK2A (human) (UniProt Q9UQM7)
Sequence of CAMK2A (human) (Q9UQM7 whole entry, looked up): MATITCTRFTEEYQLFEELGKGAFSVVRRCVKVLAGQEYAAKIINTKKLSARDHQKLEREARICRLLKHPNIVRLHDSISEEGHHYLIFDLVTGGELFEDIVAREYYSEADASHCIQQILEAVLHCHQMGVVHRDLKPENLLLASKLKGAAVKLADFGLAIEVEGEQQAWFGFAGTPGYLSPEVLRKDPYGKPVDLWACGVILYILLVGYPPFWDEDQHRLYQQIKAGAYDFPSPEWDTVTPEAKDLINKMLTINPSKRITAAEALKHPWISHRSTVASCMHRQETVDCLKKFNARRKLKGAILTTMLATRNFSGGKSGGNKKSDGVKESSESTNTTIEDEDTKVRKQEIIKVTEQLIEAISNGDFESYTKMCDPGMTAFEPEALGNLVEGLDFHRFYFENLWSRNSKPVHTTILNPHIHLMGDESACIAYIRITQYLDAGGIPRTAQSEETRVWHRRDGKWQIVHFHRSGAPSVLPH

[22] = target: ROCK2 (human) (UniProt O75116)
[23] = target: LTK (human) (UniProt P29376)
[24] = target: NTRK2 (human) (UniProt Q16620); details: compound 0.02 µM
[25] = target: JAK1 JH1 JH2 (human) (UniProt P23458)
[26] = target: STK3 (human) (UniProt Q13188)
Sequence of STK3 (human) (Q13188 whole entry, looked up): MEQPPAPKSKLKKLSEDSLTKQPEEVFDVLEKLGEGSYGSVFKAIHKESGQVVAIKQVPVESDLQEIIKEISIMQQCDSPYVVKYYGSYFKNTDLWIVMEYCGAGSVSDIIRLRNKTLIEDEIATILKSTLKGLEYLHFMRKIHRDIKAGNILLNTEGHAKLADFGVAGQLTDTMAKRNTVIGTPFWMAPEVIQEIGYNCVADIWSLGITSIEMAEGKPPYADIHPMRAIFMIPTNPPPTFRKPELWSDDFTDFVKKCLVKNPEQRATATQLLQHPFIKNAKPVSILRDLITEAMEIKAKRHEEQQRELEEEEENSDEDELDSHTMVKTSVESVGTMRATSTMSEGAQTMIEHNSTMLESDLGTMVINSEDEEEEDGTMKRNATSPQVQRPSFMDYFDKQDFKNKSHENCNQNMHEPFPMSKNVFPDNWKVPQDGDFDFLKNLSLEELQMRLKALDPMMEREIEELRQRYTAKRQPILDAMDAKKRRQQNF

[27] = target: MARK3 (human) (UniProt P27448)
[28] = target: PRKD3 (human) (UniProt O94806)
[29] = target: HIPK1 (human) (UniProt Q86Z02)
[30] = target: CIT (human) (UniProt O14578)
[31] = target: DYRK1A (human) (UniProt Q13627)
[32] = target: MARK4 (human) (UniProt Q96L34)
[33] = target: NTRK3 (human) (UniProt Q16288)
Sequence of NTRK3 (human) (Q16288 whole entry, looked up): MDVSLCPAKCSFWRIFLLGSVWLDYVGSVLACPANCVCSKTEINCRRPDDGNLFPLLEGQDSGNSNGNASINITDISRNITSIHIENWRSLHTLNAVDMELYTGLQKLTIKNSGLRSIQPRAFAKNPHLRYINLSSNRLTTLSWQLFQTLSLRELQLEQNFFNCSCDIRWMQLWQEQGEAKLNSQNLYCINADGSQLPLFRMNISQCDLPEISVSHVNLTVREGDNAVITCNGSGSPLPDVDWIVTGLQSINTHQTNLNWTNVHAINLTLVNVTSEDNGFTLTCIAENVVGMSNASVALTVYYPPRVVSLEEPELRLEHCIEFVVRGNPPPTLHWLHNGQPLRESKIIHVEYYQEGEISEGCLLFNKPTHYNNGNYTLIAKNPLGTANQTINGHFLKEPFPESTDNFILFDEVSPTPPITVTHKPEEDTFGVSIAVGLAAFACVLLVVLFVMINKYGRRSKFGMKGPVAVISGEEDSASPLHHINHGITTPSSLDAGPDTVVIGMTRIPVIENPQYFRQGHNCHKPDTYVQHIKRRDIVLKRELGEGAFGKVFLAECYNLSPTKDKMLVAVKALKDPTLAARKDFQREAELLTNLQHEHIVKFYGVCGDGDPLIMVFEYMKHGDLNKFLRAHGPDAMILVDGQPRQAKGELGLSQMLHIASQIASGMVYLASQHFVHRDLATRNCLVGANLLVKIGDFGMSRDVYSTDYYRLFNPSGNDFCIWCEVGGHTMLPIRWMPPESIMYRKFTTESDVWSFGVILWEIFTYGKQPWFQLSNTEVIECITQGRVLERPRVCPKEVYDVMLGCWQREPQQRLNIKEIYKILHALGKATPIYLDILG

[34] = target: MKNK2 (human) (UniProt Q9HBH9)

Sequence of NEK6 (human) (Q9HC98 whole entry, looked up): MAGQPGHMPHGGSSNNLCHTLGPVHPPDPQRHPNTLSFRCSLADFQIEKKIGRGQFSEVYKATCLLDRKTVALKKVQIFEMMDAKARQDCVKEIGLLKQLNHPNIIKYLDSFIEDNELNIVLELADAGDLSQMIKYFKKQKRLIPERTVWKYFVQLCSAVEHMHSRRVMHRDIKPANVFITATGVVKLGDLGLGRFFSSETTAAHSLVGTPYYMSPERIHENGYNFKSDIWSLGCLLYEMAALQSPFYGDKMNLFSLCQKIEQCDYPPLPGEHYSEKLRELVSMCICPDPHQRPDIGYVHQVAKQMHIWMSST

COc1cc2c(Oc3ccc4[nH]c(C)cc4c3F)ncnc2cc1OCCCN1CCCC1
inhibition ([1]; compound 0.02 µM): -5.1% | inhibition ([1]; compound 0.2 µM): -3.5% | inhibition ([2]; compound 0.02 µM): -4.2% | inhibition ([2]; compound 0.2 µM): -3.5% | inhibition ([3]; compound 0.02 µM): -4.9% | inhibition ([3]; compound 0.2 µM): 2.6% | inhibition ([4]; compound 0.02 µM): 15% | inhibition ([4]; compound 0.2 µM): -2.3% | inhibition ([5]; compound 0.02 µM): -5.4% | inhibition ([5]; compound 0.2 µM): -3.5% | inhibition ([6]; compound 0.02 µM): 6.9% | inhibition ([6]; compound 0.2 µM): -0.1% | inhibition ([7]; compound 0.02 µM): -2% | inhibition ([7]; compound 0.2 µM): -0.6% | inhibition ([8]; compound 0.02 µM): -2.2% | inhibition ([8]; compound 0.2 µM): 2.7% | inhibition ([9]; compound 0.02 µM): 8.1% | inhibition ([9]; compound 0.2 µM): -6.1% | inhibition ([10]; compound 0.02 µM): -2.9% | inhibition ([10]; compound 0.2 µM): -6.5% | inhibition ([11]; compound 0.02 µM): -0.7% | inhibition ([11]; compound 0.2 µM): -0.1% | inhibition ([12]; compound 0.02 µM): 13.8% and 15.6% | inhibition ([12]; compound 0.2 µM): 53.8% and 53.9% | inhibition ([13]; compound 0.02 µM): 0.6% | inhibition ([13]; compound 0.2 µM): 0.4% | inhibition ([14]; compound 0.02 µM): 6.1% | inhibition ([14]; compound 0.2 µM): -1.5% | inhibition ([15]; compound 0.02 µM): 26.9% | inhibition ([15]; compound 0.2 µM): 73.7% | inhibition ([16]; compound 0.02 µM): -3.6% | inhibition ([16]; compound 0.2 µM): -3.6% | inhibition ([17]; compound 0.02 µM): 6% | inhibition ([17]; compound 0.2 µM): 4.7% | inhibition ([18]; compound 0.02 µM): 7.9% | inhibition ([18]; compound 0.2 µM): 40.5% | inhibition ([19]; compound 0.02 µM): 5.2% | inhibition ([19]; compound 0.2 µM): 0.4% | inhibition ([20]; compound 0.02 µM): 12% | inhibition ([20]; compound 0.2 µM): 27.4% | inhibition ([21]; compound 0.02 µM): 3.5% | inhibition ([21]; compound 0.2 µM): 3.9% | inhibition ([22]; compound 0.02 µM): -2.2% | inhibition ([22]; compound 0.2 µM): -4.8% | inhibition ([23]; compound 0.02 µM): 4.7% | inhibition ([23]; compound 0.2 µM): 5.6% | inhibition [24]: 8.3% | inhibition ([25]; compound 0.02 µM): -2.9% | inhibition ([25]; compound 0.2 µM): -3.6% | inhibition ([26]; compound 0.02 µM): -2.4% | inhibition ([26]; compound 0.2 µM): -3% | inhibition ([27]; compound 0.02 µM): -1.8% | inhibition ([27]; compound 0.2 µM): -3.4% | inhibition ([28]; compound 0.02 µM): -1% | inhibition ([28]; compound 0.2 µM): -2.5% | inhibition ([29]; compound 0.02 µM): -5.7% | inhibition ([29]; compound 0.2 µM): -1% | inhibition ([30]; compound 0.02 µM): -3% | inhibition ([30]; compound 0.2 µM): -1.6% | inhibition ([31]; compound 0.02 µM): 10% | inhibition ([31]; compound 0.2 µM): -4% | inhibition ([32]; compound 0.02 µM): -7.1% | inhibition ([32]; compound 0.2 µM): -7.3% | inhibition ([33]; compound 0.02 µM): 1.6% | inhibition ([33]; compound 0.2 µM): 1.8% | inhibition ([34]; compound 0.02 µM): -3.7% | inhibition ([34]; compound 0.2 µM): 1.2%
